Columns and labels:
[1] = tested on: stage IV or recurrent NSCLC; experiment: Phase 3 study of first-line nivolumab versus platinum-based chemotherapy: efficacy; type: in vivo, human
Text: The primary endpoint was progression-free survival (PFS) per blinded independent central review in patients with ≥5% PD-L1 expression.
Eligible adult patients had histologically confirmed squamous or nonsquamous stage IV/recurrent NSCLC, ECOG PS 0-1, and measurable disease per RECIST 1.1,^15 and had received no prior systemic anticancer therapy as primary therapy for advanced or metastatic disease. Patients with central nervous system metastases were eligible if adequately treated and neurologically returned to baseline ≥2 weeks before randomization. Eligible patients had to be off corticosteroids or on a stable or decreasing dose of ≤10 mg daily prednisone (or equivalent). […] Patients with an autoimmune disease or known EGFR mutations or ALK translocations sensitive to available targeted therapy were excluded. Only patients with ≥1% PD-L1 expression were randomized.
Maintenance pemetrexed was allowed in patients with nonsquamous NSCLC who had stable disease or response after cycle 4. […] Concomitant systemic corticosteroid treatment (<3-week courses) was allowed for non-autoimmune conditions, including but not limited to treatment-related adverse events (AEs) with a potential immunologic cause.
Randomization was stratified by PD-L1 expression (<5% vs. ≥5%) and tumor histology (squamous vs. nonsquamous).
The primary endpoint was PFS based on assessment by blinded independent central review (BICR) in patients with ≥5% PD-L1 expression. Secondary endpoints included PFS per BICR among all randomized patients (≥1% PD-L1 expression), OS among patients with ≥5% PD-L1 expression and among all randomized patients, and ORR per BICR among patients with ≥5% PD-L1 expression.
Tumor response was assessed every 6 weeks until week 48 and every 12 weeks thereafter. Safety assessments included the recording of AEs, graded according to the National Cancer Institute Common Terminology Criteria for Adverse Events, version 4.0.
For efficacy analyses, patients were grouped according to TMB tertile distribution.
Comparison of PFS and OS between treatment groups was performed by two-sided log-rank tests stratified by PD-L1 expression level (≥5% vs. <5%; for endpoints in all randomized patients) and tumor histology. A stratified Cox proportional-hazards model including the randomized treatment arm as a single covariate was used to estimate HRs and their associated 95% CIs. The Kaplan-Meier method was used to estimate survival curves. ORRs were compared between treatment arms with a two-sided, stratified Cochran-Mantel-Haenszel test. The Clopper-Pearson method was used to estimate ORRs and their exact 95% CIs.

[2] = tested on: metastatic or surgically unresectable urothelial carcinoma (UC); experiment: Single-arm phase II study of nivolumab (CheckMate 275), TMB analysis; type: in vivo, human
Method: Tumor DNA from pretreatment archival tumor tissue and matched whole blood samples was profiled by whole exome sequencing. TMB was defined as the total number of missense somatic mutations per tumor, and was evaluated as a continuous variable and by tertiles (missense count: high 167, medium 85-166, low <85). Cox models were used to explore the association between TMB and progression-free survival (PFS) and overall survival (OS); and logistic regression for objective response rate (ORR). Tumor PD-ligand 1 (PD-L1) expression was assessed by Dako PD-L1 immunohistochemistry 28-8 assay and was categorized as <1%.

[3] = exploratory subgroup with ≥50% PD-L1 expression
[4] = patients with high TMB (upper tertile)
[5] = patients with ≥5% PD-L1 expression
[6] = ≥5% PD-L1 expression, responders

With Nivolumab the “Response could not be determined” value ([1]; TMB Medium) was 4 (8.2) n (%), the Stable disease ([1]; TMB Medium) was 20 (40.8) n (%) and the ORR [1, 3] was 34.1%. The “OS hazard ratio, nivolumab versus chemotherapy” value [1, 3] was 0.90, the “PFS hazard ratio, nivolumab versus chemotherapy” value (“PFS hazard ratio” for short) [1, 3] was 1.07 and the “median PFS” value ([1]; patients with high TMB) was 9.7 months. The “PFS hazard ratio” value [1, 4] was 0.62, the “objective response rate (ORR)” value [1, 4] was 46.8% and the “OS hazard ratio, nivolumab versus chemotherapy” value [1, 5] was 1.02. The “Objective response, % of patients (95% CI)” value [1, 5] was 26.1 (20.3-32.5) %, the “Objective response, No. of patients” value [1, 5] was 55 and the “PFS hazard ratio” value [1, 5] was 1.15. The “median OS” value [1, 5] was 14.4 months, the “median PFS” value [1, 5] was 4.2 months and the “Objective response, % of patients (95% CI)” value ([1]; patients with ≥5% PD-L1 expression, listed as nivolumab) was 26.1%. The “Best overall response: Complete response” value ([1]; ≥5% PD-L1 expression) was 4 (1.9) no. (%), the “Best overall response: Could not be determined” value ([1]; ≥5% PD-L1 expression) was 17 (8.1) no. (%) and the “Best overall response: Partial response” value ([1]; ≥5% PD-L1 expression) was 51 (24.2) no. (%). For the same substance, the “Best overall response: Progressive disease” value ([1]; ≥5% PD-L1 expression) was 58 (27.5) no. (%), the “Best overall response: Stable disease” value ([1]; ≥5% PD-L1 expression) was 81 (38.4) no. (%) and the “Proportion of patients with a best response of progressive disease” value ([1]; ≥5% PD-L1 expression) was 27.5%. For the same substance, the “Objective response, estimated odds ratio (95% CI)” value ([1]; ≥5% PD-L1 expression, nivolumab versus chemotherapy) was 0.70 (0.46-1.06), the “Duration of response, median” value [1, 6] was 12.1 mo and the “Time to response, median” value [1, 6] was 2.8 mo. For the same substance, the “Time to response, range” value [1, 6] was 1.2-13.2 mo, the “OS, median” value ([2]; All Pts) was 8.57 months and the “PFS, median” value ([2]; All Pts) was 2.00 month. The ORR ([2]; All Pts (N 270)) was 20.0%, the ORR ([2]; All Pts, PD-L1 1%) was 25.0% and the “OS, median” value ([2]; All Pts, PD-L1 1%) was 11.63 months. The “PFS, median” value ([2]; All Pts, PD-L1 1%) was 3.53 month, the ORR ([2]; All Pts, PD-L1 <1%) was 15.8% and the “OS, median” value ([2]; All Pts, PD-L1 <1%) was 5.95 months. For the same substance, the “PFS, median” value ([2]; All Pts, PD-L1 <1%) was 1.87 month, the ORR ([2]; TMB High) was 31.9% and the “OS, median” value ([2]; TMB High) was 11.63 months. For the same substance, the “PFS, median” value ([2]; TMB High) was 3.02 month, the ORR ([2]; TMB High, PD-L1 1%) was 33.3% and the “OS, median” value ([2]; TMB High, PD-L1 1%) was 10.60 months. The “PFS, median” value ([2]; TMB High, PD-L1 1%) was 3.52 month, the ORR ([2]; TMB High, PD-L1 <1%) was 30.4% and the “PFS, median” value ([2]; TMB High, PD-L1 <1%) was 3.02 month. For the same substance, the ORR ([2]; TMB Low) was 10.9%, the “OS, median” value ([2]; TMB Low) was 5.72 months and the “PFS, median” value ([2]; TMB Low) was 1.91 month. For the same substance, the ORR ([2]; TMB Low, PD-L1 1%) was 23.8%, the “OS, median” value ([2]; TMB Low, PD-L1 1%) was 8.57 months and the “PFS, median” value ([2]; TMB Low, PD-L1 1%) was 3.12 month. The ORR ([2]; TMB Low, PD-L1 <1%) was 0%, the “OS, median” value ([2]; TMB Low, PD-L1 <1%) was 4.96 months and the “PFS, median” value ([2]; TMB Low, PD-L1 <1%) was 1.77 month. For the same substance, the ORR ([2]; TMB Medium) was 17.4%, the “OS, median” value ([2]; TMB Medium) was 9.66 months and the “PFS, median” value ([2]; TMB Medium) was 1.87 month. For the same substance, the ORR ([2]; TMB Medium, PD-L1 1%) was 12.0%, the “OS, median” value ([2]; TMB Medium, PD-L1 1%) was 11.30 months and the “PFS, median” value ([2]; TMB Medium, PD-L1 1%) was 1.94 month. The ORR ([2]; TMB Medium, PD-L1 <1%) was 23.8%, the “OS, median” value ([2]; TMB Medium, PD-L1 <1%) was 4.53 months and the “PFS, median” value ([2]; TMB Medium, PD-L1 <1%) was 1.77 month. For the same substance, the “OS, median” value ([2]; TMB Subgroup) was 7.23 months, the “PFS, median” value ([2]; TMB Subgroup) was 2.00 month and the ORR ([2]; TMB Subgroup (N 139)) was 20.1%. For the same substance, the ORR ([2]; TMB Subgroup, PD-L1 1%) was 22.9%, the “OS, median” value ([2]; TMB Subgroup, PD-L1 1%) was 10.28 months and the “PFS, median” value ([2]; TMB Subgroup, PD-L1 1%) was 2.30 month. The ORR ([2]; TMB Subgroup, PD-L1 <1%) was 17.4%, the “OS, median” value ([2]; TMB Subgroup, PD-L1 <1%) was 5.68 months and the “PFS, median” value ([2]; TMB Subgroup, PD-L1 <1%) was 1.87 month.

Reference: patent publication US20250059610A1, “METHODS OF TREATING TUMOR” (priority 2017, published 2025)
